The record followed here is US20230114946A1, “MESOSCALE NANOPARTICLES FOR SELECTIVE TARGETING TO THE KIDNEY AND METHODS OF THEIR THERAPEUTIC USE” (Memorial Sloan Kettering Cancer Center, priority 2015, published 2023).

For the experiment, the system named is human kidney proximal tubular epithelial cell line HK-2. Description: In vitro nanoparticle uptake. It counts as cell-based. The conditions noted are these: inhibitor of clathrin/caveolin-mediated endocytosis. As for the experimental part:
The following cell lines were used to determine uptake of anionic and cationic nanoparticles in vitro: MCF-7 human breast adenocarcinoma (ATCC; Manassas, Va.), SK-RC-48 human clear cell renal cell carcinoma (ccRCC) (Weill Cornell Medical College; New York, N.Y.), bEND3 mouse brain endothelial (ATCC), endothelial cell line EA-926, and human kidney proximal tubular epithelial cell line HK-2. MCF-7 cells were cultured in Dulbecco's Modified Eagle Medium (DMEM) with penicillin (10,000 U/mL)/streptomycin (10,000 U/mL)/glutamine (29.2 mg/mL) (Gibco; Carlsbad, Calif.), 0.01 mg/mL human recombinant insulin (Gibco), and 10% fetal bovine serum (FBS) (Gibco); SK-RC-48 were cultured in DMEM with 1× penicillin/streptomycin/glutamine and 10% FBS; and bEND3 cells in the same plus 1% glutaMAX (Gibco). HK-2 cells were cultured in Keratinocyte Serum Free Media (Gibco). EA-926 cells were cultured in RPMI-1640 medium (Gibco) supplemented with 10% FBS. Cells were passaged approximately weekly and media changed every 2-3 days. Cells were seeded into a 6-well cell culture dish for uptake studies. […]
Cells were incubated with 100 μg/mL NPs in 1 mL of their respective complete medias for 30 minutes. […] Cells were imaged with a fluorescence microscope using Cy5 filters.

Each structure is given as a SMILES string.

Take `O=C(N/N=C/c1ccc(O)c(O)c1)c1cc2ccccc2cc1O` [Dynasore]: the “inhibition of MNP uptake into HK-2 cells” value is “can be inhibited”.
